Here are results for three molecules from US20230257715A1, “COMPOSITIONS AND METHODS FOR REGULATING ENTEROENDOCRINE CELL DIFFERENTIATION AND USES THEREOF” (The Children's Medical Center Corporation, priority 2020, published 2023).

One test concerns human duodenal enteroids. The experiment in a line: qPCR analysis of enteroendocrine and lineage markers in enteroids. Format: cell-based. Conditions: for EE cell marker expression on inclusion in DM: compared with GM and DM without betacellulin or PF, qPCR. An excerpt: For differentiation, enteroids were passaged and grown in GM for two days, to allow for ISC expansion, after which the organoids were transitioned to tissue-specific differentiation media (DM) with additional small molecules added as described (TABLE 1A and TABLE 1B). Media was changed every two days, with Tubastatin A being removed after the second day of differentiation. Enteroids and rectoids were taken for analysis after 14 days.
Total RNA was purified from individual wells using TRI®Reagent (Sigma) and the Direct-zol™ RNA kit (Zymo Research), following the manufacturer's protocol. RNA concentration was determined using a NanoDrop™ 1000 spectrophotometer (Life Technologies). RNA was treated with DNAse (Promega) and reverse transcribed using the High-Capacity cDNA Reverse Transcription Kit (Life Technologies). Gene expression analysis was then performed by Real Time quantitative PCR (qPCR) using a QuantStudio 6 Flex thermocycler (Life Technologies). Taqman primers from Life Technologies (TABLE 3) were used. 18S transcripts were used as the internal control and data were expressed using the 2^−ddCt method with Ct limit of 40. Fold change, unless otherwise stated, was compared to total RNA derived from adult whole mucosal tissue biopsies.

The conditions of test [1]: literature (Sathyapalan et al. 2010); cited from earlier work.
A further test deals with GATA4-NKX2-5. The following applies: in vitro, literature (Valimaki et al. 2017); cited from earlier work.

Regarding `Nc1ccc(-c2cnc(N)c(-c3ccc(Cl)cc3)c2)cn1` [PF, PF06260933], the “EE cell marker expression on inclusion in DM” value with human duodenal enteroids is recorded as “increased expression of EE cell markers”. Take `Cc1c(C(=O)NN2CCCCC2)nn(-c2ccc(Cl)cc2Cl)c1-c1ccc(Cl)cc1` [Rim, rimonabant]: the “EE lineage marker mRNA expression when added to DM (qPCR)” value with human duodenal enteroids (compared to enteroids grown in G2D12, FIG. 2.1A) is “induced expression of multiple EE lineage markers (CHGA, NEUROD1, NEUROG3, SST, and GIP) when added to DM, with Rim having a much larger effect”. The “human serum GIP levels” value in test [1] is reported as “increase human serum GIP levels”. In addition, the GATA4-NKX2-5 transcriptional activity result in the test with GATA4-NKX2-5 is “increase the activity of GATA4-NKX2-5 transcriptional activity in vitro”.

B1: betacellulin (protein, UniProt P35070 32-111, looked up)
Betacellulin: DGNSTRSPETNGLLCGDPEENCAATTTQSKRKGHFSRCPKQYKHYCIKGRCRFVVAEQTPSCVCDEGYIGARCERVDLFY
modifications: Betacellulin
notes: a ligand of both EGFR and the ErbB4 receptor
As for B1, the “EE cell marker expression on inclusion in DM” value in the test with human duodenal enteroids is given as “increased expression of EE cell markers”.
